# Measurements: patent US20070208086A1, “UBIQUINONE ANALOGS AND METHODS OF USE” (THE REGENTS OF THE UNIVERSITY OF CALIFORNIA, priority 2006, published 2007)
# Test: Determination of reduction potentials by cyclic voltametry (CV)
# Format: physicochemical
# From the text: In one embodiment, the compound of the invention has a reduction potential, which is different from the reduction potential of CoQ10. In an exemplary embodiment, the reduction potential found for the compound of the invention is lower than the reduction potential of CoQ10. Methods for the determination of reduction potentials are known in the art and are, for example, described in A. J. Fry, Synthetic Organic Electrochemistry, 2nd Ed., Wiley-Interscience, New York, 1989. For example the reduction potential is measured against the Ag/AgNO3 redox system. “Reduction potential” can mean “first reduction potential”, in which a first electron is transferred (e.g., Q→Q ? ), or “second reduction potential”, in which a second electron is transferred (e.g., Q ? →Q^−2). Typically, “reduction potential” for the purpose of comparing compounds, means the first reduction potential. However, for certain compounds a distinction between a first and a second reduction potential cannot be measured. In these cases, the “overall” (measurable) reduction potential is used to compare reduction potential values of compounds. The reduction potentials for selected ubiquinone analogs of the invention are summarized in Example 12, below. For example, while the first reduction potential of CoQ10 in a particular assay is −1.11, the first reduction potential found for compound 9 is −1.22, which is lower than −1.11. In another example, the overall reduction potential for compound 7 is −1.44, which is lower than −1.11 for CoQ10. In an exemplary embodiment, the ratio (a/b) between the reduction potential of a compound of the invention (a) and the reduction potential of CoQ10 to (b) in a particular assay is between about 1 and about 50. In another exemplary embodiment, the ratio is between about 1 and about 40, preferably between about 1 and about 30, more preferably between about 1 and about 20, and even more preferably between about 1 and about 10. In yet another exemplary embodiment, the ratio is between about 1 and about 8 preferably between about 1 and about 6, more preferably between about 1 and about 4, and most preferably between about 1 and about 2.
# The redox chemistry of a variety of purified ubiquinones of the invention was examined using cyclic voltametry (CV). Methods for the determination of reduction potentials are known in the art and are, for example, described in A. J. Fry, Synthetic Organic Electrochemistry, 2nd Ed., Wiley-Interscience, New York, 1989.
# The resulting redox data (including those for CoQ10) are listed in the order of increasing first-wave potentials (Epc1) in Table 1, below. The abbreviation Epc1 and Epc2 are used to represent the values of the first and second cathodic peak potentials, respectively. The peak potentials correspond to the first and second reduction wave minima in the recorded CV graphs (see e.g., FIG. 1).
# The value of the second peak potential is, typically, an approximation. Chemical side reactions coupled to the transient species generated in the first reduction may contribute to the shape of the wave, and thus the peak potential. […] Representative first and second reduction waves for analogs 1 and 23, as well as for CoQ10, are illustrated in FIG. 1, which represents an expanded portion of the recorded CV graph.
compound,measurement,setting,value
COC1=C(OC)C(=O)C(C/C=C(\C)CC/C=C(\C)CC/C=C(\C)CC/C=C(\C)CC/C=C(\C)CC/C=C(\C)CC/C=C(\C)CC/C=C(\C)CC/C=C(\C)CCC=C(C)C)=C(C)C1=O [CoQ10],"Q/Q*− (Epc1), first wave potential","Epc vs. Ag/AgNO3 in DMF, first cathodic peak potential",−1.11 V
same,"Q*−/Q−2 (Epc2), second wave potential","Epc vs. Ag/AgNO3 in DMF, second cathodic peak potential, typically an approximation",−1.42 V
same,first reduction potential,FIG. 1 reduction waves,-1.11 V
same,second reduction potential,FIG. 1 reduction waves,-1.42 V
same,first reduction potential,in a particular assay,−1.11
